Measurements as given in patent US12215116B2, “Arginase inhibitors and methods of use” (Merck Sharp & Dohme LLC, priority 2018, dated 2025).

molecular target: T1, Arginase (ARG1 enzyme) (Homo sapiens, UniProt P05089); assay: Arginase Thioornithine Generating Assay (TOGA); format: biochemical; settings: 1.88 nM arginase, thioarginine substrate, fluorescence readout
T1 construct: made in house; host or cells: Escherichia coli
T1 sequence (P05089 1-322): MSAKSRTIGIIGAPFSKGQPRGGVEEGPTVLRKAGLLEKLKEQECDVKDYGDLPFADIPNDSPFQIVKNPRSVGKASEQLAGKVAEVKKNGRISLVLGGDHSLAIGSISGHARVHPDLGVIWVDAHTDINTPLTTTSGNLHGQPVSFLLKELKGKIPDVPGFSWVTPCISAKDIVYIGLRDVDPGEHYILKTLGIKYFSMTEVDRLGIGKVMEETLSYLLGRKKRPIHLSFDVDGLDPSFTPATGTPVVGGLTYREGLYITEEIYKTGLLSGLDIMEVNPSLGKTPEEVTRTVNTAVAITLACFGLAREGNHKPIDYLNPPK
Method: Arginase Thioornithine Generating Assay (TOGA)
Compounds were serially diluted in ten 3-fold steps in DMSO starting from 10 mM DMSO stocks. Compound dilutions or DMSO alone were then dispensed from the dilution plate into a Greiner black 384-well assay plate (catalog #781086) using an Echo 555 acoustic liquid handler (Labcyte).
Arginase protein was recombinantly expressed in Escherichia coli. Purified protein was then diluted in assay buffer (50 mM Tris pH 7.5, 50 mM NaCl, 1 mM manganese chloride, 0.05% bovine serum albumin to obtain a final Arginase concentration of 1.88 nM. Arginase solution (20 μL) or buffer alone (20 μL) were dispensed to wells of the assay plate using a BioRAPTR liquid dispenser (Beckman Coulter). Assay plates containing compound and ARG1 enzyme were incubated at room temperature for 30 minutes. Afterwards, 5 μL of 2.5 mM thioarginine (Cayman Chemicals) in assay buffer were added to each well of the assay plate using a BioRAPTR liquid dispenser. Plates were incubated at room temperature for 60 minutes and reactions were quenched by addition of 15 μL of […] 7-Diethylamine-3-(4-maleimidophenyl)-4-methylcoumarin (Sigma Chemical) in 70% ethanol. Plates were briefly shaken to mix and the fluorescence was measured in an Spectramax plate reader (Molecular Devices) with a 410 nm excitation wavelength and an 490 nm emission wavelength.
Potencies were calculated by […] to the four parameter logistic IC50 equation.

Row | SMILES | IC50 [nM]
1 | NCC1(C(=O)O)CCC(CCB(O)O)C1 (mixture of isomers) [Example 95, 1-(aminomethyl)-3-(2-boronoethyl)cyclopentane-1-carboxylic acid] | > 10000
2 | NC[C@]1(C(=O)O)NCC[C@H]1CCCB(O)O (relative stereo) [Example 57A, 2-(aminomethyl)-3-(3-boronopropyl)pyrrolidine-2-carboxylic acid] | 112
3 | O=C(O)[C@@H]1NCCC[C@@H]1CCCB(O)O (single isomer, unassigned) [Example 1A] | 3660
4 | O=C(O)[C@H]1NCCC[C@H]1CCCB(O)O (single isomer, unassigned) [Example 1B] | 377
5 | O=C(O)[C@H]1NCCC[C@@H]1CCCB(O)O (single isomer, unassigned) [Example 1D] | 22800
6 | O=C(O)[C@H]1NCC[C@H]1CCCB(O)O (single isomer, unassigned) [Example 9A] | 18
7 | O=C(O)C1NCC[C@@H]1CCCB(O)O (single isomer, unassigned) [Example 9B] | 8040
8 | O=C(O)[C@H]1NC[C@@H](O)[C@@H]1CCCB(O)O (single isomer, unassigned) [Example 20A] | 475
9 | O=C(O)C1CNCC1CCCB(O)O (single isomer, unassigned) [Example 21A, 4-[3-(dihydroxyboranyl)propyl]pyrrolidine-3-carboxylic acid] | > 10000
10 | O=C(O)C1CNCC1CCCB(O)O (single isomer, unassigned) [Example 21B, 4-[3-(dihydroxyboranyl)propyl]pyrrolidine-3-carboxylic acid] | 602
11 | O=C(O)C1CNCC1CCCB(O)O (single isomer, unassigned) [Example 21C, 4-[3-(dihydroxyboranyl)propyl]pyrrolidine-3-carboxylic acid] | > 10000
12 | O=C(O)C1CNCC1CCCB(O)O (single isomer, unassigned) [Example 21D, 4-[3-(dihydroxyboranyl)propyl]pyrrolidine-3-carboxylic acid] | 1520
13 | NC1CN[C@H](C(=O)O)C1CCCB(O)O (single isomer, unassigned) [Example 33A] | > 10000
14 | NC1CN[C@H](C(=O)O)C1CCCB(O)O (single isomer, unassigned) [Example 33B] | > 10000
15 | NC[C@]1(C(=O)O)NCC[C@H]1CCCB(O)O (single isomer, unassigned) [Example 57B] | 5710
16 | O=C(O)[C@]1(CO)NCC[C@H]1CCCB(O)O (single isomer, unassigned) [Example 59B] | 133
17 | NC1(C(=O)O)CNCC1(CO)CCCB(O)O (single isomer, unassigned) [Example 94A, 3-amino-4-(3-boronopropyl)-4-(hydroxymethyl)pyrrolidine-3-carboxylic acid] | 3080
18 | NC1(C(=O)O)CNCC1(CO)CCCB(O)O (single isomer, unassigned) [Example 94B] | 940
19 | O=C(O)C1NCCCC1CCCB(O)O (centres unmarked) [Example 1, 3-[3-(dihydroxyboranyl)propyl]piperidinyl-2-carboxylic acid] | 660
20 | O=C(O)[C@@H]1NCCC[C@H]1CCCB(O)O [Example 1C, (2R,3R)-3-[3-(dihydroxyborany)propy]piperidinyl-2-carboxylic acid] | 83300
21 | O=C(O)C1(CCN2CCCCC2)NCCCC1CCCB(O)O (centres unmarked) [Example 2, 3-[3-(dihydroxyboranyl)propyl]-2-[2-(piperidin-1-yl)ethyl]piperidinyl-2-carboxylic acid] | 396
22 | O=C(O)C1NCCCC1OCCB(O)O (centres unmarked) [Example 3, 3-[2-(dihydroxyboranyl)ethoxy]piperidinyl-2-carboxylic acid] | > 10000
23 | O=C(O)C1CC(CCB(O)O)CCN1 (centres unmarked) [Example 4, 4-[2-(dihydroxyboranyl)ethyl]piperidinyl-2-carboxylic acid] | 19800
24 | O=C(O)C1(CCN2CCCCC2)CC(CCB(O)O)CCN1 (centres unmarked) [Example 5, 4-[2-(dihydroxyboranyl)ethyl]-2-[2-(piperidin-1-yl)ethyl]piperidinyl-2-carboxylic acid] | 1330

Row | SMILES | IC50 [nM]
25 | O=C(O)C1CNCCC1CCCB(O)O (centres unmarked) [Example 6, 4-[3-(dihydroxyboranyl)propyl]piperidinyl-3-carboxylic acid] | 57500
26 | O=C(O)C1NCCNC1CCCB(O)O (centres unmarked) [Example 7, 3-[3-(dihydroxyboranyl)propyl]piperazine-2-carboxylic acid] | 99000
27 | O=C(O)[C@H]1NC[C@@H]1CCCB(O)O [Example 8A, (2S,3S)-3-[3-(dihydroxyboranyl)propyl]azetidine-2-carboxylic acid] | 340
28 | O=C(O)[C@H]1NC[C@H]1CCCB(O)O [Example 8B, (2S,3R)-3-[3-(dihydroxyboranyl)propyl]azetidine-2-carboxylic acid] | 447
29 | O=C(O)[C@H]1NCCC1CCCB(O)O (stereo partly drawn) [Example 9, 3-[3-(dihydroxyboranyl)propyl]-L-proline] | 113
30 | O=C(O)C1C(CCCB(O)O)CCN1CCN1CCCCC1 (centres unmarked) [Example 10, 3-(3-boronopropyl)-1-(2-(piperidin-1-yl)ethyl)pyrrolidine-2-carboxylic acid] | 12900
31 | O=C(O)C1(CCN2CCCCC2)NCCC1CCCB(O)O (centres unmarked) [Example 11, 3-(3-boronopropyl)-2-(2-(piperidin-1-yl)ethyl)pyrrolidine-2-carboxylic acid] | 84
32 | OCC1NCCC1CCCB(O)O (centres unmarked) [Example 12, {3-[2-(hydroxymethyl)pyrrolidin-3-yl]propyl}boronic acid] | 3810
33 | CC1(C)[C@H]2C[C@@H]3OB(CCC[C@@H]4CCN[C@@H]4C(=O)O)O[C@]3(C)[C@@H]1C2 [Example 13, (3R)-3-{3-[(3aR,4R,6R,7aS)-3a,5,5-trimethylhexahydro-4,6-methano-1,3,2-benzodioxaborol-2-yl]propyl}-L-proline] | 30
34 | C[C@@]1(CCCB(O)O)CCN[C@@H]1C(=O)O [Example 14, (3R)-3-[3-(dihydroxyboranyl)propyl]-3-methyl-L-proline] | 16
35 | O=C(O)[C@@H]1NCC[C@H]1CCCB(O)O [Example 15A, (3R)-3-[3-(dihydroxyboranyl)propyl]-D-proline] | > 10000
36 | O=C(O)[C@H]1NCC[C@@H]1CCCB(O)O [Example 15B, (3S)-3-[3-(dihydroxyboranyl)propyl]-L-proline] | 413
37 | C[C@]1(C(=O)O)NCC[C@H]1CCCB(O)O [Example 16A, (3R)-3-[3-(dihydroxyboranyl)propyl]-2-methyl-L-proline] | 70
38 | C[C@@]1(C(=O)O)NCC[C@@H]1CCCB(O)O [Example 16B, (3S)-3-[3-(dihydroxyboranyl)propyl]-2-methyl-D-proline] | 2260
39 | C[C@@]1(C(=O)O)NCC[C@H]1CCCB(O)O [Example 16C, (3R)-3-[3-(dihydroxyboranyl)propyl]-2-methyl-D-proline] | 1450
40 | CC1CC(CCCB(O)O)[C@@H](C(=O)O)N1 (some centres unmarked) [Example 17, 3-[3-(dihydroxyboranyl)propyl]-5-methylproline] | > 10000
41 | O=C(O)[C@@H]1CC(CCB(O)O)CN1 (some centres unmarked) [Example 18, 4-[2-(dihydroxyboranyl)ethyl]proline] | 8730
42 | O=C(O)[C@]1(CCN2CCCCC2)CC(CCB(O)O)CN1 (some centres unmarked) [Example 19, 4-[2-(dihydroxyboranyl)ethyl]-2-[2-(piperidin-1-yl)ethyl]proline] | 5370
43 | O=C(O)[C@H]1NC[C@@H](O)[C@H]1CCCB(O)O [Example 20B, (3S,4S) 3-[3-(dihydroxyboranyl)propyl]-4-hydroxy-L-proline] | > 10000
44 | CC1(C)[C@H]2C[C@@H]3OB(CCC[C@]4(C)CCN[C@@H]4C(=O)O)O[C@]3(C)[C@@H]1C2 [Example 22, (2S,3R)-3-methyl-3-(3-((3aR,4R,6R,7aS)-3a,5,5-trimethylhexahydro-4,6-methanobenzo[d][1,3,2]dioxaborol-2-yl)propyl)pyrrolidine-2-carboxylic acid] | 151
45 | O=C(O)[C@H]1NC[C@H](N2CCCC2)[C@H]1CCCB(O)O [Example 25, (3′R,4′S,5′S)-4′-(3-boronopropyl)-[1,3′-bipyrrolidine]-5′-carboxylic acid] | 522
46 | O=C(O)[C@H]1NC[C@H](NCC(F)(F)F)[C@H]1CCCB(O)O [Example 26, (2S,3R,4R)-3-(3-boronopropyl)-4-((2,2,2-trifluoroethyl)amino)pyrrolidine-2-carboxylic acid] | 120
47 | O=C(O)[C@H]1NC[C@H](NCC(F)F)[C@H]1CCCB(O)O [Example 27, (2S,3R,4R)-3-(3-boronopropyl)-4-((2,2-difluoroethyl)amino)pyrrolidine-2-carboxylic acid] | 128
